Read-outs that look alike come from different tables or passages of the source.

The values below come from patent publication US20030060463A1, “Preparation of topical regional compositions for the relief of pain” (priority 1995, published 2003).

This experiment concerns pain due to nerve injury (SMP). It is filed as in vivo, human.

Excerpt: The purpose of this study was to evaluate and compare the safety and efficacy in the application of five topical compositions prepared with three active ingredients and applied singly or in combinations for the purpose of relief of sympathetically mediated pain (SMP).
The study size was a total of thirty four volunteer subjects; fifteen female and nineteen male volunteer subjects. Their ages ranged from 29 to 84 with a mean of 52 years of age. All subjects were diagnosed with severe sympathetically mediated pain.
Three different therapeutically active agents were utilized, alone or in combination, in preparations of lecithin matrix gels.
A different composition was applied each treatment day to the area of maximum pain. The patients were asked to indicate the level of their pain immediately prior to the application of the compositions, and then at intervals of 5, 10, 15 minutes, 1, 2 and 3 hours after receiving treatment. Pain intensity was measured using the scale below.
SIGNIFICANT PAIN RELIEF WAS DEFINED AS >50% PAIN RELIEF SUSTAINED GREATER THAN 2 HOURS. For example, if a given patient rated their pain immediately prior to application of the compositions as “very intense”, they would get a 1.8 score per the scale. […]

Turning to `CN(C)CCC=C1c2ccccc2CCc2ccccc21` [amitriptylline], the “Safety and efficacy in clinical trials at other dosages” value (human, in vivo) was “safe and effective”.
As for `CNC1(c2ccccc2Cl)CCCCC1=O` (centres unmarked) [ketamine], the “Safety and efficacy in clinical trials at other dosages” value (dosage between 0.05% to 2% of the topical composition) is “safe and effective”.
